# Values quoted from earlier work as cited in patent publication US9629386B2, “Nutrition composition” (AJINOMOTO CO., INC., priority 2008, dated 2017).
# Tested on: CRP and nutrition condition
# Settings: 1.2 g to 11 dialysis patients for 12 weeks
substance,measurement,value
ω-3 fatty acid,CRP,did not decrease CRP
same,nutrition condition,did not improve nutrition condition
